Source: patent US7504035B2, “Treatment of putrescrible cakes” (United Utilities PLC, priority 2005, dated 2009)

Legend:
Assay type in all cases: cell-based
E. coli [1] = assay: E. coli content of raw sewage sludge cake (25.6% DS) treated with urea; conditions: raw sewage sludge 25.6% DS
Description: Samples of raw sewage sludge cake with mean solids content of 25.6% were treated with various amounts of urea. The E. coli content (cfu/g dry weight) of the samples was monitored over a period.

E. coli [2] = assay: E. coli content of digested sludge cake (24.8% solids) treated with urea; conditions: digested sewage sludge 24.8% solids
Description: Samples of digested sludge cake with mean solids content of 24.8% were treated with various amounts of urea. The E. coli content (cfu/g dry weight) of the samples was monitored over a period.

pathogens in the cake = assay: Pathogen deactivation in sewage sludge cake (general statement); conditions: low concentration added to sewage sludge cake, particularly septic cake

NC(N)=O [urea]
E. coli content (E. coli [1]; 0.5% dose urea, day 0): 1.36E+06 cfu/g dry weight | E. coli content (E. coli [1]; 0.5% dose urea, day 1): 7.58E+06 cfu/g dry weight | E. coli content (E. coli [1]; 0.5% dose urea, day 8): 1.32E+05 cfu/g dry weight | E. coli content (E. coli [1]; 0.5% dose urea, day 14): 1.18E+05 cfu/g dry weight | E. coli content (E. coli [1]; 0.5% dose urea, day 22): 4.55E+04 cfu/g dry weight | E. coli content (E. coli [1]; 1.0% dose urea, day 0): 1.39E+06 cfu/g dry weight | E. coli content (E. coli [1]; 1.0% dose urea, day 1): 6.15E+06 cfu/g dry weight | E. coli content (E. coli [1]; 1.0% dose urea, day 8): 3.25E+03 cfu/g dry weight | E. coli content (E. coli [1]; 1.0% dose urea, day 14): 9.58E+02 cfu/g dry weight | E. coli content (E. coli [1]; 1.0% dose urea, day 22): 3.35E+02 cfu/g dry weight | E. coli content (E. coli [1]; 1.5% dose urea, day 0): 1.23E+06 cfu/g dry weight | E. coli content (E. coli [1]; 1.5% dose urea, day 1): 1.30E+03 cfu/g dry weight | E. coli content (E. coli [1]; 1.5% dose urea, day 8): 9.03E+02 cfu/g dry weight | E. coli content (E. coli [1]; 1.5% dose urea, day 14): 2.09E+02 cfu/g dry weight | E. coli content (E. coli [1]; 1.5% dose urea, day 22): 1.00E+01 cfu/g dry weight | E. coli content (E. coli [2]; 0.5% dose urea, day 0): 4.67E+04 cfu/g dry weight | E. coli content (E. coli [2]; 0.5% dose urea, day 1): 1.86E+03 cfu/g dry weight | E. coli content (E. coli [2]; 0.5% dose urea, day 4): 1.21E+02 cfu/g dry weight | E. coli content (E. coli [2]; 0.5% dose urea, day 7): 1.94E+02 cfu/g dry weight | E. coli content (E. coli [2]; 0.5% dose urea, day 14): 3.90E+01 cfu/g dry weight | E. coli content (E. coli [2]; 0.5% dose urea, day 50): 5.40E+01 cfu/g dry weight | E. coli content (E. coli [2]; 1.0% dose urea, day 0): 1.79E+04 cfu/g dry weight | E. coli content (E. coli [2]; 1.0% dose urea, day 1): 6.97E+03 cfu/g dry weight | E. coli content (E. coli [2]; 1.0% dose urea, day 4): 7.90E+01 cfu/g dry weight | E. coli content (E. coli [2]; 1.0% dose urea, day 7): 7.90E+01 cfu/g dry weight | E. coli content (E. coli [2]; 1.0% dose urea, day 14): 1.34E+02 cfu/g dry weight | E. coli content (E. coli [2]; 1.0% dose urea, day 50): 1.85E+02 cfu/g dry weight | E. coli content (E. coli [2]; 1.5% dose urea, day 0): 1.19E+04 cfu/g dry weight | E. coli content (E. coli [2]; 1.5% dose urea, day 1): 4.57E+03 cfu/g dry weight | E. coli content (E. coli [2]; 1.5% dose urea, day 4): 3.70E+01 cfu/g dry weight | E. coli content (E. coli [2]; 1.5% dose urea, day 7): 1.54E+02 cfu/g dry weight | E. coli content (E. coli [2]; 1.5% dose urea, day 14): 7.90E+01 cfu/g dry weight | E. coli content (E. coli [2]; 1.5% dose urea, day 50): 4.10E+01 cfu/g dry weight | Pathogens in the cake (pathogens in the cake): quickly become deactivated
